From patent EP3448864B1, “SILSE[…] TRANSPORT COMPOUNDS” (Technische Universität Darmstadt, priority 2016, dated 2017)

What was measured:
Format in all cases: cell-based
[1] = test system: HeLa-Zellen; test: Cell proliferation test (MTT) after short incubation; conditions: free drug in PBS pH 5,5, different concentrations, 1, 2 and 3 h incubation, 1x10^4 HeLa cells, MTT after 18 h
Description: Um die Toxizität von Doxorubicin auf HeLa-Zellen zu untersuchen, wurde ein Inkubationszeitabhängiger Test mit dem freien Wirkstoff durchgeführt. Dafür wurde Doxorubicin in PBS bei pH 5,5 gelöst und bei unterschiedlichen Konzentrationen für 1 Stunde, 2 Stunden und 3 Stunden mit 1x10^4 HeLa-Zellen inkubiert. Nach dem Inkubieren wurden die Zellen mit DMEM gewaschen und nach 18 Stunden ein Zellproliferationstest (MTT) durchgeführt.
Danach wurde die oben gezeigte erfindungsgemäße Verbindung mit Doxorubicin als Cargo-Molekülstruktur getestet. Die Verbindung wurde - genau wie die Kontrollen (freies Doxorubicin, unbehandelte Zellen) -je dreifach bei gleicher Konzentration für eine Stunde inkubiert. Um die Disulfidbrücke zu schützen wurden die Zellen mit hoch-glucosehaltigem DMEM ohne Methionin, Cysteine und Glutamine gewaschen. Nach der Inkubation wurden die Zellen mit DMEM gewaschen und nach 18 Stunden wurde ein MTT-Assay durchgeführt. […] Die Ergebnisse sind in FIG.6 zusammen gefasst.

[2] = test system: HeLa-Zellen; test: Flow cytometry quantification of cellular uptake; conditions: for Aufnahme in Zellen: summary statement in the description, citing FIG.1A/1B, 2, 3, 4
Description: Um die Aufnahme der Verbindungen in eukaryotische Zellen zu quantifizieren, wurden umfangreiche Durchflusszytometrieuntersuchungen mit den Verbindungen 2 bis 7 (Verbindungen 2 und 5 sind Vergleichsbeispiele) durchgeführt. Ferner wurden auch die aus dem Stand der Technik bekannten zellpenetrierenden Peptide Tat 10, Penetratin 11, Heptaarginin 12 und Decaarginin 13 untersucht. Zu diesem Zweck wurden auch die Peptide mit TAMRA markiert.
Zunächst wurden HeLa-Zellen mit den zu untersuchenden Substanzen bei einer Konzentration von 20 µM in serumfreiem DMEM bei 37°C für 10 Minuten inkubiert. Danach wurden die Zellen dreimal mit PBS gewaschen und nach einem Trypsinverdau nochmals mit PBS gewaschen. Danach wurden die Untersuchungen durchgeführt. […] Die Ergebnisse sind in FIG.2 zusammen gefasst.

[3] = test system: HeLa-Zellen; test: Study of the uptake mechanism (temperature, concentration, serum) by fluorescence
Protocol: Es wurden weitere Fluoreszenzuntersuchungen an Verbindung 4 durchgeführt. […] Daraus kann angenommen werden, dass der Mechanismus energieunabhängig verläuft.
Ferner wurden HeLa-Zellen mit der Verbindung 4 bei unterschiedlichen Konzentrationen inkubiert. Schon bei 80 nM wurde eine Aufnahme in die Zellen beobachtet. Bei 1 µM wurde der größte Effekt beobachtet.
Darüber hinaus wurde untersucht, ob Serum die Aufnahme in die Zellen behindern kann. Dafür wurde die Inkubationslösung mit 2% fetalem Kälberserum versetzt.

[4] = HeLa cells incubated at different concentrations

COc1cccc2c1C(=O)c1c(O)c3c(c(O)c1C2=O)C[C@@](O)(C(=O)CO)C[C@@H]3O[C@H]1C[C@H](N)[C@H](O)[C@H](C)O1 [Doxorubicin, reference compound]
Toxizität auf HeLa-Zellen [1]: mit längerer Inkubation nahm die Toxizität zu

TAMRA-hepta-4-guanidinobuttersäure-COSS-amid [Verbindung 7]
Aufnahme in Zellen [2]: besonders ausgeprägte Aufnahme in Zellen

TAMRA-hepta-4-trimethylammoniumbuttersäure-COSS-amid [Verbindung 6]
Aufnahme in Zellen [2]: besonders ausgeprägte Aufnahme in Zellen

TAMRA-heptaguanidin-COSS [Verbindung 4]
Aufnahme stärker ausgeprägt als die des Tat-Peptids ([2]; 20 µM, serum-free DMEM, 37°C, 10 min, fold versus TAMRA-labelled Tat peptide): 155 mal | Aufnahme ([2]; 20 µM, serum-free DMEM, 37°C, 10 min, ranking among compounds 2 to 7 and TAMRA-labelled peptides 10 to 13, FIG.2): beste Aufnahme | Aufnahme in Zellen [2]: besonders ausgeprägte Aufnahme in Zellen | Konzentration, bei der der größte Effekt beobachtet wurde [3, 4]: 1 µM | Konzentration, bei der schon eine Aufnahme in die Zellen beobachtet wurde [3, 4]: 80 nM | Aufnahme bei den unterschiedlichen Temperaturen ([3]; incubation at 37°C versus 4°C): kaum unterschiedlich | Einfluss von Serum auf die Aufnahme in die Zellen ([3]; incubation solution with 2% fetal calf serum versus serum-free tests): kein Unterschied

TAMRA-heptatrimethylammonium-COSS [Verbindung 3]
Aufnahme in Zellen [2]: besonders ausgeprägte Aufnahme in Zellen
